Assay results: patent publication EP2632470B1 (priority 2010, dated 2012)
Where a name gives a salt, the structure may show the parent alone.

Tested on: Malassezia furfur
Experiment: Intrinsic anti-Malassezia potency, growth inhibition by optical density
Type: cell-based
Conditions: Malassezia furfur, read-out: Intrinsic Anti-Malassezia Potency (IC50, µM)
Method: To measure the growth inhibition properties of test materials against Malassezia, we carried out the following protocol.
Starting cultures are prepared by incubating with shaking at 31°. Cells (5 ml of culture) are collected by centrifugation and suspended in 50 ml fresh mDixon medium. […] The plates are shaken vigorously on a Heidolph Titramax 100 overnight at 31°. To increase the humidity, water-soaked cotton batting is placed over the plates.
As a control, the optical density of untreated M. furfur is measured after overnight incubation. As another control, the optical density of the starting culture is measured. The difference between these optical densities represents the amount of growth of M. furfur.

N[C@@H](COP(=O)(O)O)C(=O)O [L-2-Amino-3-phosphopropanoic acid] and CCC(NCCNC(CC)C(=O)O)C(=O)O (stereo not shown) [Ethylenediiminodi-2-butanoic acid] cannot be ordered by IC50: over 500 µM for the first, over 500 µM for the second.

Going from CC(C)c1cccc(O)c(=O)c1 [1-Hydroxy-4-(1-methylethyl)cyclohepta-3,5,7-trien-2-one] to O=C(O)CN(CCN(CC(=O)O)CC(=O)O)CC(=O)O [Ethylenediaminetetraacetic acid (EDTA), Ethylenediaminetetraacetic acid], the IC50 rises from 65 µM to over 500 µM. The first is the more potent here.

O=C(O)CN(CC(=O)O)[C@@H]1CCCC[C@H]1N(CC(=O)O)CC(=O)O (relative stereo) [trans-1,2-Cyclohexylenedinitrilotetraacetic acid] gave an IC50 of 500 µM.

Same assay, conditions: Malassezia furfur; mDixon medium, overnight at 31°, optical density 600 nm; read-out: Intrinsic Anti-Malassezia Potency (IC50)

Cc1occc(=O)c1O [maltol] and Cc1c(O)c(=O)ccn1C [3-Hydroxy-1,2-dimethyl-4(1H)-pyridone] are within 1.5-fold of each other in IC50: 793 µM for the first, 719 µM for the second.

Going from O=c1cc(CO)occ1O [kojic acid] to Oc1cccc2cccnc12 [8-hydroxyquinoline], the IC50 falls from 704 µM to 138 µM (5.1-fold).

First: NCCc1ccccn1 [2-(2-aminoethyl)-pyridine]
Second: Oc1c(Cl)cc(Cl)c2cccnc12 [5,7-dichloro-8-hydroxyquinoline]
The IC50 of the first is higher: over 500 µM for the first, 23.4 µM for the second.

S=C(N=Nc1ccccc1)NNc1ccccc1 [1,5-Diphenyl-1,2,4,5-tetraazapent-1-en-3-thione] and c1ccc(-c2cccc(-c3ccccn3)n2)nc1 [2,2':6',2"-terpyridine] are within 1.5-fold of each other in IC50: 62.5 µM for the first, 86 µM for the second.

Going from CCCCCCCCOc1cccc(=O)n1O [HP-101, N-Hydroxy-6-octyloxypyridine-2(1H)one, ethanolamine salt] to Oc1ccc2ccccc2c1N=Nc1nccs1 [1-(2-Thiazoylazo)-2-naphthol], the IC50 rises from 54.6 µM to 250 µM (4.6-fold).

O=C(O)CN(CCO)CCO [N,N-Bis(2-hydroxyethyl)glycine (Bicine), N,N-Bis(2-hydroxyethyl)glycine] and NCCC(=O)N[C@@H](Cc1c[nH]cn1)C(=O)O [beta-Alanyl-L-histidine (L-Carnosine), beta-Alanyl-L-histidine] cannot be ordered by IC50: over 500 µM for the first, over 500 µM for the second.

First: c1ccc(CN(CCN(Cc2ccccn2)Cc2ccccn2)Cc2ccccn2)nc1 [N,N,N',N-tetrakis(2-pyridylmethyl) ethylenediamine]
Second: c1cnc2c(c1)ccc1cccnc12 [1,10-Phenanthroline]
The IC50 of the first is 2.3-fold lower: 71 µM for the first, 166 µM for the second. The first is the more potent here.

C1CNCCNCCNCCNCCNCCN1 [1,4,7,10,13,16-Hexaazacyclooctadecane] and O=C(O)CN1CCCN(CC(=O)O)CCN(CC(=O)O)CCCN(CC(=O)O)CC1 [1,4,8,11-Tetraazacyclotetradecane-N,N',N",N'''-tetraacetic acid] cannot be ordered by IC50: over 500 µM for the first, over 500 µM for the second.

Compared with Oc1c(I)cc(Cl)c2cccnc12 [5-Chloro-8-hydroxy-7-iodoquinoline], Oc1ccc(N=Nc2nccs2)c(O)c1 [4-(2-thiazolylazo)-resorcinol] is higher in IC50: 65.5 µM for the first, over 900 µM for the second.

Cc1ccc2ccc3ccc(C)nc3c2n1 [2,9-dimethyl-1,10-phenanthroline] was tested, and the IC50 was over 480 µM.

Same assay, conditions: comment on Table 1 data

With O=C(O)CN(CCN(CC(=O)O)CC(=O)O)CC(=O)O [Ethylenediaminetetraacetic acid (EDTA), Ethylenediaminetetraacetic acid] the “anti-fungal effectiveness (in words)” value was “not to be effective”.

Same assay, conditions: mDixon medium, overnight at 31°, optical density 600 nm; read-out: Intrinsic Anti-Malassezia Potency (IC50)

With “zinc salt of 1-hydroxy-2-pyridinethione [Zinc Pyrithione]” the IC50 was 15 µM.

Tested on: M. furfur 7982
Experiment: Fractional Inhibitor Concentration (FIC) test of chelator combined with ZPT
Type: cell-based
Conditions: combination with ZPT (from 12.5ppm); chelator from 400ppm or 800ppm; 33°C, 2 days; average of duplicate plates
Description: Fractional Inhibitor Concentration (FIC) is a conventional methodology for evaluating antimicrobial interactions. In an embodiment of the present invention, an FIC is used to determine combinatorial effects of two chemicals on anti-Malassezia activity in a tissue culture setting.
• 1. Each FIC assay is run in duplicate. • 2. Low levels of M. furfur 7982 cells are inoculated into each well of a 96 well plate. • 3. Chemical #1 (in our assays, this is always ZPT) is titrated (2x concentration reductions) from right to left across each row of the plate, starting at 12.5ppm final concentration and ending at 0ppm. • 4. […] Plates are incubated at 33°C, 60%RH for 2 days with agitation. • 6. Optical densities (OD's) are then determined using a spectrophotometer.
1. […]. The lowest concentration value of chemical #1, both by itself and with the lowest concentration of chemical #1 which boosts chemical #2's potency, that inhibit growth are determined (see Appendix 1). 4. Likewise, the lowest concentration of chemical #2, both by itself and with the lowest concentration of chemical #2 that boosts chemical #1's potency, that inhibit growth are determined (see Appendix 1). 5. The FIC value for the duplicate plates is determined using the calculations below: FIC = (lowest inhibitory dose of Chemical#1 by itself)/(inhibitory dose of Chemical#1 in a well that also contains Chemical#2also contains Chemical#1) + (lowest inhibitory dose of Chemical#2by itselflowest)/(lowest inhibitory dose of Chemical#2in a well that) [formula] ave FIC VALUE = (FIC value for plate 1+FIC value for plate2); 2 [formula] 6. The average FIC value is then determined, and the combinatorial effect of the two chemicals is classified according to the chart below: […]

Going from “N-Hydroxy-6-octyloxypyridine-2(1H)one, zinc salt [HP-100 Zn]” to O=C1c2cccc3cccc(c23)C(=O)N1O [N,N-Naphthaloylhydroxylamine], the FIC rises from 0.7 to 0.8.

Going from CCCCCCCCOc1cccc(=O)n1O [HP-101, N-Hydroxy-6-octyloxypyridine-2(1H)one, ethanolamine salt] to Maltol, Zinc salt, the FIC falls from 0.62 to 0.1.

Going from Thiomaltol, Zinc salt to Cc1occc(=S)c1O [Thiomaltol], the FIC rises from 0.5 to 0.8.

Going from “1,2-Dimethyl-3-hydroxy-4-pyridone, Zinc salt” to Benzohydroxamic acid, Zinc Salt, the FIC falls from 0.5 to 0.3.
